In patent publication US20100029674A1, “Methods of Using Phosphoantigen for the Treatment of Cancer” (INNATE PHARMA, S.A., priority 2007, published 2010):
Structures can show the parent of a compound that is named as a salt. Where a SMILES comes first, the peptide text is derived from it.

Experiments:
γ9δ2 T cells = assay: Dose range activation of γδ T cells following iv injection of BrHPP (GLP pharmacology studies); assay type: in vivo, non-human primates
Vγ9Vδ2 T cells = assay: Phase I escalating dose clinical trial: amplification of Vγ9Vδ2 T cells by flow cytometry in chemotherapy-treated patients; assay type: in vivo, human; details: after second administration (with IL-2)
Experimental: Blood samples (4 ml) were withdrawn into EDTA containing tubes. Tubes were shipped overnight at room temperature (RT) before flow cytometry analyses.
Peripheral lymphocytes were analyzed by flow cytometry on total blood, after triple staining with anti-Vdelta2FITC, anti-CD3PE and anti-CD25PC5 antibodies (Vdelta2-FITC : IMMU389 clone, Immunotech-Beckman-Coulter, Marseilles, France; CD3-PE : UCHTI clone, Immunotech-Beckman-Coulter; CD25PC5 : M-A251 clone, Becton Dickinson, Le Pont de Claix, France).
Briefly, 100 μl patient blood was incubated 15 min at RT with 10 μl anti-Vdelta2-FITC, 10 μl anti-CD3-PE and 10 μl anti-CD25PC5 antibodies. Antibodies were washed with 3 ml 1× PBS, centrifuged for 4 min at 1300 rpm at RT and supernatant was discarded. Red cells were lysed with the OptiLyse B reagent (Immunotech-Beckman-Coulter, Marseilles, France) according to the manufacturer's instructions. At the final step, stained white blood cells were recovered by centrifugation and resuspended in 300 μl 1× PBS+0.2% PFA. Flow cytometry analysis on viable cells was performed on a FacsSCAN apparatus (Becton Dickinson) with the FacsDiva software.
(§1) PHOSPHOST™ (Bromohydrin pyrophosphate, BrHPP) was evaluated in an escalating dose clinical trial in patients with advanced/metastatic solid tumors. The therapeutic regimen and pharmaco-toxicology of BrHPP in combination with low dose of IL-2 have previously been characterized in non human primates. The patients received at least 3 injections of BrHPP 3 weeks apart, concomitant with low dose of IL-2 (1 million IU/m^2/day). Pharmacological response was monitored all along the treatment. Based on the results of the phase I trial, a multicenter phase II study on metastatic RCC patients has been scheduled. The clinical drug product was a 200 mg/vial of lyophilized Phosphostim (expressed in mg equivalent of BrHPP anionic form.). The formulation of Phosphostim was reconstituted immediately prior to use with 2 ml of water for injections to make a 100 mg/ml solution. The reconstituted product was diluted in a total volume of 100 ml of ringer lactate buffer infusion vehicle. Phosphostim was administered intravenously over 1 hour.
All patient cohorts received repeated 3-week cycles of Phosphostim alone for the first cycle and Phosphostim in combination with IL-2 for the subsequent cycles. • first cycle: Phosphostim alone, • subsequent cycles: Phosphostim in combination with IL-2
Patients were sequentially allotted to cohorts of progressively higher dose levels of Phosphostim. […] The objective tumor response was assessed after 3 cycles (i.e., every 9 weeks). […]
Drug plasma levels were measured during the first and the second cycles in all patients. […] Biological effect was monitored throughout the trial and studied on PBMC and plasma. […]

[1] = system: advanced/metastatic solid tumors; assay: Phase I clinical trial: progression free survival; assay type: in vivo, human
Experimental: as §1
The clinical trial was therefore a phase I, single arm, open-label, national, multi-center, dose-escalation trial in sequential cohorts of patients with advanced/metastatic solid tumors.
Patients were sequentially allotted to cohorts of progressively higher dose levels of Phosphostim. […] The objective tumor response was assessed after 3 cycles (i.e., every 9 weeks).

γδ T cells [2] = assay: In vitro BrHPP sensitivity test: 8 day culture of peripheral lymphocytes from CML patients undergoing Gleevec therapy, flow cytometry; assay type: cell-based, human
Experimental: The study intends to test the sensitivity of γ962 T cells from oncology patients to BrHPP. It aims at identifying cancers and or situations in which a BrHPP treatment would be relevant and those for which it would be less or not beneficial. In brief, a small sample of blood is sufficient to prepare PBMCs and culture in the presence of BrHPP. A result of the level of in vitro amplification of gamma-delta cells by BrHPP can be obtained in about 8 days.
Upon reception of blood, 20 ml blood samples were treated by Ficoll gradient to isolate peripheral lymphocytes, which were then frozen. The lymphocytes were cultured in a 96-well plate (1 million cells/ml) for 8 days in the presence of BrHPP. The percentage of γ962 T cells were then determined by a phenotypic assay (flow cytometry).
In such small scale culture assay, a patient is considered to be responsive to an agonist following 8 days of in vitro stimulation according to two criteria: the percentage of γ962 T cells in culture as well as the rate of amplification of these cells. The amplification rate corresponds to the ratio of number of total γ962 T cells at the end of culture to the total γ962 T cells at the start of culture. The qualitative evaluation of these two criteria was divided into four levels of response, according to the Table 2.
A patient is considered sensitive to BrHPP if the sum of the values of the two criteria is ++ or +++. A classification of 0 or + is considered non-sensitive.

γδ T cells [3] = assay: BrHPP-induced amplification of γδ T cells in monkeys treated with imatinib mesylate; assay type: in vivo; details: BrHPP iv plus IL-2 with oral daily imatinib mesylate 15 mg/kg versus BrHPP alone; days 6 and 20
human γ9δ2 T cells = assay: Combination of BrHPP and tyrosine kinase inhibitors on amplification of Vd2/Vg9 T cells in NOD SCID mice; assay type: in vivo; details: BrHPP 50 mg/kg i.p. day 0, IL-2 day 0 to 4, TKI from day 0 for 3 to 5 days; peritoneal lavage day 8
Experimental: Cell line: human PBMC whose γ9δ2 T cells percentage is higher than 0.5% and which has been previously tested for the “sensitivity test”. They were thawed one hour before injection and maintained for one hour in complete medium (RPMI 1640 supplemented with 2 mM L-glutamine, 1 mM Sodium Pyruvate (all from Gibco-BRL, Life Science, Invitrogen) and 10% heat inactivated Fetal Calf Serum (Fetal clone)) in incubator at 37° C.
• FITC anti human V82,Immunotech, ref 1464 • PerCpCy5.5 anti human CD3, Pharmingen, ref 552552 • APC anti human Vγ9 • APC Cy7 anti human CD45, Pharmingen, ref 348815 • PE anti human CD56, Pharmingen, ref 556647
Mice used included (a) NOD SCID female mice aged 8-10 weeks from Charles River Laboratories. Mice were fed and housed under sterilized conditions in Innate-Pharma's animal facility, and (b)NOD SCID female mice aged 10-12 weeks bred at Innate Pharma.
Each group contained 5 mice. Following transfer of human PBMC cells described above, the 4 groups received BrHPP (50 mg/kg, i.p.) on day 0 and IL-2 (2 M/m^2, s.c.) every day from day 0 to day 4. […] On day 8 mice were sacrificed, cells were collected by peritoneal lavage, and γ9δ2 T cell proliferation was assessed by flow cytometry.

[4] = system: advanced drug refractory ovarian cancer; details: in vivo; cited from earlier work
[5] = system: previously treated metastatic breast cancer; details: in vivo; cited from earlier work
various lung cancers = details: in vivo; cited from earlier work
[6] = system: histone deacetylase (HDAC); details: cited from earlier work
[7] = phosphostim plus IL-2, iv injection

3-(bromomethyl)-3-butanol-1-yl-diphosphate [BrHPP]
γ9δ2 T cell levels return to basal level (γ9δ2 T cells; in most animals (except some treated with a high dose)): 14 days
EC50 in vivo (γ9δ2 T cells; [7]): about 60 mg/kg
dose at which a plateau seems to be reached (γ9δ2 T cells; [7]): 97 mg/kg
dose from which the effect is detected (γ9δ2 T cells; [7]): ≥ 2.4 mg/kg
amplification rate of Vγ9Vδ2 T cells (Vγ9Vδ2 T cells; Patient 1 (0035), colon cancer, 1500 mg/m2, within six months of Cetuximab/Irinotecan therapy): 11 ×
amplification rate of Vγ9Vδ2 T cells (Vγ9Vδ2 T cells; Patient 2 (0039), colon cancer, 1500, Erbitux/Irinotecan ending within three months before): 6.4 ×
amplification rate of Vγ9Vδ2 T cells (Vγ9Vδ2 T cells; Patient 3 (0018), metastatic renal cell carcinoma, 1800 mg/m^2, prior BAY 43-9006 and Avastin ending within a month before): 6.2 ×
amplification rate of Vγ9Vδ2 T cells (Vγ9Vδ2 T cells; Patient 4 (0017), colon cancer, 1200 mg/m^2, Oxaliplatin/5FU/Elvorine/Vinflumine ending within three months before): 4.3 ×
PFS (progression free survival) ([1]; Patient 3 (0018), metastatic renal cell carcinoma, two cycles, 1800 mg/m^2): 72 weeks
PFS ([1]; Patient 4 (0017), colon cancer, three cycles, 1200 mg/m^2): 39 weeks
non-sensitive patients (γδ T cells [2]; of 19 CML patients undergoing imitanib mesylate treatment): One
patients with values of either ++ or +++ (responsive to BrHPP induced amplification) (γδ T cells [2]; of 19 CML patients undergoing imitanib mesylate treatment, sum of the two criteria of Table 2): 18 patients

Cc1ccc(NC(=O)c2ccc(CN3CCN(C)CC3)cc2)cc1Nc1nccc(-c2cccnc2)n1 [Gleevec, imatinib mesylate, reference compound]
sensitivity of T cells from Gleevec-treated CML patients to γ9δ2 T cell agonists such as BrHPP (γδ T cells [2]; 8 days culture with BrHPP): remain sensitive
effect on γδ T cell proliferation (percentage of γ9δ2 T cells among total cells) (γδ T cells [3]): does not significantly impair

CNC(=O)c1cc(Oc2ccc(NC(=O)Nc3ccc(Cl)c(C(F)(F)F)c3)cc2)ccn1 [Sorafenib, sorafenib]
effect on γδ T cell proliferation (percentage of γ9δ2 T cells among total cells) (human γ9δ2 T cells): does not impair

CC(=O)O[C@H]1C(=O)[C@@]2(C)[C@H]([C@H](OC(=O)c3ccccc3)[C@]3(O)C[C@H](OC(=O)[C@H](O)[C@@H](NC(=O)c4ccccc4)c4ccccc4)C(C)=C1C3(C)C)[C@]1(OC(C)=O)CO[C@@H]1C[C@@H]2O [taxol, Paclitaxel]
response rate [4]: 19-36%
response rate [5]: 27-62%
response rate (various lung cancers): 21-37%

O=C(CCCCC[C@@H]1NC(=O)[C@H]2CCCCN2C(=O)[C@H](Cc2ccccc2)NC(=O)[C@H](Cc2ccccc2)NC1=O)C1CO1 (some centres unmarked) [trapoxin (TPX), trapoxin] (HELM PEPTIDE1{F.F.[O=C([C@H]1CCCCN1[*:1])[*:2]].[O=C(CCCCC[C@H](N[*:1])C(=O)[*:2])C1CO1]}$PEPTIDE1,PEPTIDE1,1:R1-4:R2$$$V2.0)
concentration at which HDAC is inhibited [6]: nanomolar concentrations

CC(/C=C/C(=O)NO)=C\[C@@H](C)C(=O)c1ccc(N(C)C)cc1 [trichostatin A]
concentration at which HDAC is inhibited [6]: nanomolar concentrations
